Like-named read-outs stand apart in the source and are kept apart here. Starred links: 1 amine or outer side, 2 acyl side, 3 side chain; linkers in the order of their positions; H or OH if unused. Non-standard residues stand in square brackets, D forms with d. Groups on a side chain read outwards from the residue. *: point of attachment. C20 diacid = O=C(O)CCCCCCCCCCCCCCCCCCC(=O)*; C18 diacid = O=C(O)CCCCCCCCCCCCCCCCC(=O)*; γGlu = O=C(O)[C@H](CCC(=O)[*:2])N[*:1]; εLys = N[C@@H](CCCCN[*:1])C(=O)[*:2]; AEEA = NCCOCCOCC(=O)O; Aib = CC(C)(N)C(=O)O
Tests used:
Assay type in all cases: cell-based
Conditions in all cases: CreLuc reporter gene assay
hGLP1R = target: T1, hGLP1R (Homo sapiens, UniProt P43220); experiment: hGLP1R CreLuc reporter gene assay in 0.5% and 100% plasma
T1 construct: expressed in transfected cells; host or cells: HEK-293 cells carrying a CRE-luciferase reporter gene
T1 sequence (P43220 24-463): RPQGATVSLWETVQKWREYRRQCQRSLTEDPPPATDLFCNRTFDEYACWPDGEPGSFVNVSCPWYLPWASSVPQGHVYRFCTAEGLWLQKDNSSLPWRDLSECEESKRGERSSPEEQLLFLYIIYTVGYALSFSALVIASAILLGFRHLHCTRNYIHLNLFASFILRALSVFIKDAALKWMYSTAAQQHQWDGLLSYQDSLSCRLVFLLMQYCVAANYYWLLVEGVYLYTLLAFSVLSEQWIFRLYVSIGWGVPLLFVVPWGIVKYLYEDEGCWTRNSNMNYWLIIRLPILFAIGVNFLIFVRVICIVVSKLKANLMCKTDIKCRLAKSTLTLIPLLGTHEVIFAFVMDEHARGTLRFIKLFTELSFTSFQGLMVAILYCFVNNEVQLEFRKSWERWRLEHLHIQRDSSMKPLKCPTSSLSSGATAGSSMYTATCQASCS
Summary of the method: (§1)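 Agonist EC50s came from 8-concentration curves over four decades, fitted by non-linear variable-slope regression of CRE-driven luciferase luminescence. Cells were exposed 4 h at 37 °C, in buffer with 0.5% human plasma or in 100% plasma; GIPR was expressed in CHO cells, GLP-1R and NPY2R in HEK cells.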

hGIPR = target: T2, hGIPR (Homo sapiens, UniProt P48546); experiment: hGIPR CreLuc reporter gene assay in 0.5% and 100% plasma
T2 construct: expressed in transfected cells; host or cells: CHO cells carrying a CRE-luciferase reporter gene
T2 sequence (P48546 22-466): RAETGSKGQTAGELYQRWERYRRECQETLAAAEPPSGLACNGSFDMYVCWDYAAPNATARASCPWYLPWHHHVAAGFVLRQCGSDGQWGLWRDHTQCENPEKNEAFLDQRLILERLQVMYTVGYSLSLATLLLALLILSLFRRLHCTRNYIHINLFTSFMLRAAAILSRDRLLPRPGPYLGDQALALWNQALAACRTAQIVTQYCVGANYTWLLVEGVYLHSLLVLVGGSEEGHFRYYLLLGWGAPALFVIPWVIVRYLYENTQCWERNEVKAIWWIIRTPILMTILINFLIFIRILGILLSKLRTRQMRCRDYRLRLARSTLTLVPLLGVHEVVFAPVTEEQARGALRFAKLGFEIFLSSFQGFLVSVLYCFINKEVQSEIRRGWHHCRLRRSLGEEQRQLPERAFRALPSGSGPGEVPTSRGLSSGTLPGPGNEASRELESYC
Summary of the method: as §1

hNPY2R = target: T3, hNPY2R (Homo sapiens, UniProt P49146); experiment: hNPY2R CreLuc reporter gene assay in 0.5% and 100% plasma
T3 construct: expressed in transfected cells; host or cells: HEK-293 cells carrying a CRE-luciferase reporter gene
T3 sequence (P49146 1-381): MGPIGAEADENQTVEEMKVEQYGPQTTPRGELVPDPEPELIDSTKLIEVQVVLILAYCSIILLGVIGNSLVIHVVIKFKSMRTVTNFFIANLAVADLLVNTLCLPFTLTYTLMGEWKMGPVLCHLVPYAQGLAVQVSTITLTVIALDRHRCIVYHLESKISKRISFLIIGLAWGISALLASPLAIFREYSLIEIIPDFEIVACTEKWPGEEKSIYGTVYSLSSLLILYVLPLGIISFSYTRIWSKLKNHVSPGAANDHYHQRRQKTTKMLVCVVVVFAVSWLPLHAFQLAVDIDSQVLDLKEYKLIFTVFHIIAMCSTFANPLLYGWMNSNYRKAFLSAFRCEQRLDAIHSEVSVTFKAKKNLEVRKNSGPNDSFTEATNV
Summary of the method: as §1

[1] = 0.5% human plasma, read-out: hGLP1R 0.5% hP
[2] = 0.5% human plasma, read-out: hGIPR 0.5% hP
[3] = 100% human plasma, read-out: hGIPR 100% hP
[4] = 100% human plasma, read-out: hNPY2R 100% hP
[5] = 0.5% human plasma, read-out: hNPY2R 0.5% hP
[6] = 100% human plasma, read-out: hGLP1R 100% hP

Compound	EC50 (hGLP1R; [1])	EC50 (hGIPR; [2])	EC50 (hGIPR; [3])	EC50 (hNPY2R; [4])	EC50 (hNPY2R; [5])	EC50 (hGLP1R; [6])
CC[C@H](C)[C@H](NC(=O)[C@H](CC(C)C)NC(=O)[C@H](Cc1c[nH]c2ccccc12)NC(=O)[C@H](CCC(=O)O)NC(=O)[C@@H](NC(=O)[C@H](Cc1ccccc1)NC(=O)[C@H](C)NC(=O)C(C)(C)NC(=O)[C@H](CCC(N)=O)NC(=O)[C@H](C)NC(=O)[C@H](CCC(N)=O)NC(=O)[C@H](CCCCN)NC(=O)[C@H](CCC(=O)O)NC(=O)[C@H](CC(C)C)NC(=O)C(C)(C)NC(=O)[C@@H](NC(=O)[C@H](CO)NC(=O)[C@H](Cc1ccc(O)cc1)NC(=O)[C@H](CC(=O)O)NC(=O)[C@H](CO)NC(=O)[C@@H](NC(=O)[C@H](Cc1ccccc1)NC(=O)[C@@H](NC(=O)CNC(=O)[C@H](CCC(=O)O)NC(=O)C(C)(C)NC(=O)[C@@H](N)Cc1ccc(O)cc1)[C@@H](C)O)[C@@H](C)O)[C@@H](C)CC)C(C)C)C(=O)N[C@@H](CCCCNC(=O)[C@@H](N)CCCCNC(=O)CC[C@H](NC(=O)CC[C@H](NC(=O)CC[C@H](NC(=O)CC[C@H](NC(=O)CC[C@H](NC(=O)CC[C@H](NC(=O)CCCCCCCCCCCCCCCCCCC(=O)O)C(=O)O)C(=O)O)C(=O)O)C(=O)O)C(=O)O)C(=O)O)C(=O)NCC(=O)NCC(=O)N1CCC[C@H]1C(=O)N[C@@H](CO)C(=O)N[C@@H](CO)C(=O)NCC(=O)N[C@@H](C)C(=O)N[C@@H](CO)C(=O)N[C@@H](CC(C)C)C(=O)N[C@@H](CCCNC(=N)N)C(=O)N[C@@H](Cc1c[nH]cn1)C(=O)N[C@@H](Cc1ccc(O)cc1)C(=O)N[C@@H](CC(C)C)C(=O)N[C@@H](CC(N)=O)C(=O)N[C@@H](Cc1c[nH]c2ccccc12)C(=O)N[C@@H](CC(C)C)C(=O)N[C@H](C(=O)N[C@@H](CCCNC(=N)N)C(=O)N[C@@H](CCC(N)=O)C(=O)N[C@@H](CCCNC(=N)N)C(=O)N[C@@H](Cc1ccc(O)cc1)C(N)=O)[C@@H](C)O [Compound 86, Y-Aib-E-G-T-F-T-S-D-Y-S-I-Aib-L-E-K-Q-A-Q-Aib-A-F-V-E-W-L-I-K(1,3)-GGPSSGASLRHYLNWLTRQRY-NH2.C20DA-gGlu-gGlu-gGlu-gGlu-gGlu-gGlu-eLys(1,2)]	0.25 nM	0.48 nM	1.61 nM	53.1 nM		
H-Y[Aib]EGTFTSDYSI[Aib]LEKQAQ[Aib]AFVEWLIK([AEEA-AEEA-γGlu-γGlu-γGlu-C18 diacid])GGPEEGASLRHYYNWLTRQRY-NH2 [Compound 248, Y-Aib-E-G-T-F-T-S-D-Y-S-I-Aib-L-E-K-Q-A-Q-Aib-A-F-V-E-W-L-I-K(1,3)-GGPEEGASLRHYYNWLTRQRY-NH2.C18DA-gGlu-gGlu-gGlu-OEG-OEG(1,2)]	0.25 nM	0.12 nM	0.79 nM		18.7 nM	
H-Y[Aib]EGTFTSDYSI[Aib]LEKQAE[Aib]AFVEWLIK([γGlu-γGlu-γGlu-γGlu-C18 diacid])GGPSEGASLRHYYNWLTRQRY-NH2 [Compound 262, Y-Aib-E-G-T-F-T-S-D-Y-S-I-Aib-L-E-K-Q-A-E-Aib-A-F-V-E-W-L-I-K(1,3)-GGPSEGASLRHYYNWLTRQRY-NH2.C18DA-gGlu-gGlu-gGlu-gGlu(1,2)]	0.13 nM	0.08 nM	0.53 nM		13.2 nM	
H-Y[Aib]EGTFTSDYSI[Aib]LEKQAQ[Aib]AFVEWLIK([εLys-γGlu-γGlu-γGlu-γGlu-γGlu-γGlu-C20 diacid])GGPSEYVSLRHYYNWLTRQRY-NH2 [Compound 217, Y-Aib-E-G-T-F-T-S-D-Y-S-I-Aib-L-E-K-Q-A-Q-Aib-A-F-V-E-W-L-I-K(1,3)-GGPSEYVSLRHYYNWLTRQRY-NH2.C20DA-gGlu-gGlu-gGlu-gGlu-gGlu-gGlu-eLys(1,2)]		0.74 nM			18.6 nM	17.2 nM
H-Y[Aib]EGTFTSDYSI[Aib]LEKQAQ[Aib]AFVQWLIK([εLys-γGlu-γGlu-γGlu-γGlu-γGlu-γGlu-C20 diacid])GGPSEGVSLRHYYNWLTRQRY-NH2 [Compound 114, Y-Aib-E-G-T-F-T-S-D-Y-S-I-Aib-L-E-K-Q-A-Q-Aib-A-F-V-Q-W-L-I-K(1,3)-GGPSEGVSLRHYYNWLTRQRY-NH2.C20DA-gGlu-gGlu-gGlu-gGlu-gGlu-gGlu-eLys(1,2)]	0.15 nM	0.27 nM		44.8 nM		
H-Y[Aib]EGTFTSDYSI[Aib]LEKQAQ[Aib]AFIEWLIK([AEEA-AEEA-γGlu-γGlu-γGlu-γGlu-C20 diacid])GGPSEGASLRHYYNWLTRQRY-NH2 [Compound 231, Y-Aib-E-G-T-F-T-S-D-Y-S-I-Aib-L-E-K-Q-A-Q-Aib-A-F-I-E-W-L-I-K(1,3)-GGPSEGASLRHYYNWLTRQRY-NH2.C20DA-gGlu-gGlu-gGlu-gGlu-OEG-OEG(1,2)]	0.14 nM	0.33 nM	1.43 nM		19.2 nM	
H-Y[Aib]EGTFTSDYSI[Aib]LEEEAQ[Aib]AFVQWLIK([εLys-εLys-γGlu-γGlu-γGlu-γGlu-γGlu-C20 diacid])GGPSSGASLRHYYNWLTRQRY-NH2 [Compound 7, Y-Aib-E-G-T-F-T-S-D-Y-S-I-Aib-L-E-E-E-A-Q-Aib-A-F-V-Q-W-L-I-K(1,3)-GGPSSGASLRHYYNWLTRQRY-NH2.C20DA-gGlu-gGlu-gGlu-gGlu-gGlu-eLys-eLys(1,2)]	0.13 nM	0.23 nM	0.63 nM		16.9 nM	
H-Y[Aib]EGTFTSDYSI[Aib]LEKQAQ[Aib]AFVQWLIK([AEEA-AEEA-Glu-Glu-Glu-C18 diacid])GGPEEGASLRHYYNWLTRQRY-NH2 [Compound 188, Y-Aib-E-G-T-F-T-S-D-Y-S-I-Aib-L-E-K-Q-A-Q-Aib-A-F-V-Q-W-L-I-K(1,3)-GGPEEGASLRHYYNWLTRQRY-NH2.C18DA-E-E-E-OEG-OEG(1,2)]	0.15 nM	0.12 nM			16.9 nM	
H-Y[Aib]EGTFTSDYSI[Aib]LEKQAQ[Aib]AFVEWLIK([εLys-γGlu-γGlu-γGlu-γGlu-γGlu-γGlu-C20 diacid])GGPSEYESLRHYYNWLTRQRY-NH2 [Compound 93, Y-Aib-E-G-T-F-T-S-D-Y-S-I-Aib-L-E-K-Q-A-Q-Aib-A-F-V-E-W-L-I-K(1,3)-GGPSEYESLRHYYNWLTRQRY-NH2.C20DA-gGlu-gGlu-gGlu-gGlu-gGlu-gGlu-eLys(1,2)]	0.22 nM	0.14 nM	2.35 nM	85.7 nM	15.3 nM	8.97 nM
H-Y[Aib]EGTFTSDYSI[Aib]LEKQAQ[Aib]AFVEWLIK([εLys-γGlu-γGlu-γGlu-γGlu-γGlu-γGlu-C20 diacid])GGPSSGASLRHY[Aib]NR[Aib]TRQRY-NH2 [Compound 18, Y-Aib-E-G-T-F-T-S-D-Y-S-I-Aib-L-E-K-Q-A-Q-Aib-A-F-V-E-W-L-I-K(1,3)-G-G-P-S-S-G-A-S-L-R-H-Y-Aib-N-R-Aib-T-R-Q-R-Y-NH2.C20DA-gGlu-gGlu-gGlu-gGlu-gGlu-gGlu-eLys(1,2)]	0.12 nM	0.36 nM			85.7 nM	
H-Y[Aib]EGTFTSDYSI[Aib]LELQAQ[Aib]AFVEWLIK([εLys-γGlu-γGlu-γGlu-γGlu-γGlu-γGlu-C20 diacid])GGPSSGASLRHYYNWLTRQRY-NH2 [Compound 209, Y-Aib-E-G-T-F-T-S-D-Y-S-I-Aib-L-E-L-Q-A-Q-Aib-A-F-V-E-W-L-I-K(1,3)-GGPSSGASLRHYYNWLTRQRY-NH2.C20DA-gGlu-gGlu-gGlu-gGlu-gGlu-gGlu-eLys(1,2)]	0.48 nM	0.81 nM			35.2 nM	16.7 nM
